Read-outs that look alike come from different tables or passages of the source.
Biological target: T1, ASGP receptor (biotinylated ASGPR) (Homo sapiens, UniProt P07306)
T1 construct: biotin (biotinylated)
T1 sequence (P07306 1-291): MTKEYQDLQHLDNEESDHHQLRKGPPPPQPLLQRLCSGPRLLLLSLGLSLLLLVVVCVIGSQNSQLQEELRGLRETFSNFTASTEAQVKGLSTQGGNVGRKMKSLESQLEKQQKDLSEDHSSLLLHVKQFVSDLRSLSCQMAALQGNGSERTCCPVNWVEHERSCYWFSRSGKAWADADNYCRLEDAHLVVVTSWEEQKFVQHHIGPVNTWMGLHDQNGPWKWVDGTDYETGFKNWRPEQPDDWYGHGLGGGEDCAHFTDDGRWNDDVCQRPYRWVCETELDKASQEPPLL
Assay type: binding
Settings: SPR, Biacore 8K, 25° C.

Row | Compound | Kd (Table 1A, read-out: ASGPR KD) | Kd (Table 1B, read-out: ASGPR Kd)
1 | O=C(O)c1ccc(N2CCC(CN3CCN(C[C@H]4OC[C@H](Nc5cccc(C(F)(F)F)n5)[C@@H](O)[C@H]4O)CC3)CC2)cc1 [A100, 4-(4-((4-(((2R,3R,4R,5S)-3,4-dihydroxy-5-((6-(trifluoromethyl)pyridin-2-yl)amino)tetrahydro-2H-pyran-2-yl)methyl)piperazin-1-yl)methyl)piperidin-1-yl)benzoic acid] | < 10 µM | –
2 | O=C(O)c1ccc(N2CCC(CN3CCN(C[C@H]4OC[C@H](Nc5nc(C(F)(F)F)ccc5F)[C@@H](O)[C@H]4O)CC3)CC2)cc1 [A101, 4-(4-((4-(((2R,3R,4R,5S)-5-((3-fluoro-6-(trifluoromethyl)pyridin-2-yl)amino)-3,4-dihydroxytetrahydro-2H-pyran-2-yl)methyl)piperazin-1-yl)methyl)piperidin-1-yl)benzoic acid] | < 10 µM | –
3 | CC(=O)N1C[C@H](Nc2cncc(C(F)(F)F)n2)[C@@H](O)[C@@H](O)C1 [A102, 1-((3S,4R,5S)-3,4-dihydroxy-5-((6-(trifluoromethyl)pyrazin-2-yl)amino)piperidin-1-yl)ethan-1-one] | < 10 µM | –
4 | O=C(O)COCCOCC(=O)NC[C@H]1OC[C@H](Nc2cccc(C(F)(F)F)n2)[C@@H](O)[C@H]1O [A103, 2-(2-(2-((((2R,3R,4R,5S)-3,4-dihydroxy-5-((6-(trifluoromethyl)pyridin-2-yl)amino)tetrahydro-2H-pyran-2-yl)methyl)amino)-2-oxoethoxy)ethoxy)acetic acid] | < 10 µM | –
5 | OC[C@H]1O[C@H](Cc2ccccc2)[C@@H](Nc2nccc(C(F)(F)F)n2)[C@@H](O)[C@H]1O [A104] | 10 to 100 µM | –
6 | OC[C@H]1O[C@H](c2ccccc2)[C@H](Nc2cncc(C(F)(F)F)n2)[C@@H](O)[C@H]1O [A105, (2R,3R,4R,5R,6R)-2-(hydroxymethyl)-6-phenyl-5-((6-(trifluoromethyl)pyrazin-2-yl)amino)tetrahydro-2H-pyran-3,4-diol] | < 10 µM | –
7 | O=C(O)COCCOCC(=O)NC[C@H]1OC[C@H](Nc2nccc(C(F)(F)F)n2)[C@@H](O)[C@H]1O [A106, 2-(2-(2-((((2R,3R,4R,5S)-3,4-dihydroxy-5-((4-(trifluoromethyl)pyrimidin-2-yl)amino)tetrahydro-2H-pyran-2-yl)methyl)amino)-2-oxoethoxy)ethoxy)acetic acid] | < 10 µM | –
8 | O=C(O)COCCOCC(=O)NC[C@H]1OC[C@H](Nc2ccnc(C(F)(F)F)c2)[C@@H](O)[C@H]1O [A107, 2-(2-(2-((((2R,3R,4R,5S)-3,4-dihydroxy-5-((2-(trifluoromethyl)pyridin-4-yl)amino)tetrahydro-2H-pyran-2-yl)methyl)amino)-2-oxoethoxy)ethoxy)acetic acid] | < 10 µM | –
9 | OC[C@H]1OC[C@H](Nc2ccccc2)[C@@H](O)[C@H]1O [A108, (2R,3R,4R,5S)-2-(hydroxymethyl)-5-(phenylamino)tetrahydro-2H-pyran-3,4-diol] | < 10 µM | –
10 | OC[C@H]1O[C@@H](c2ccccc2)[C@H](Nc2cncc(C(F)(F)F)n2)[C@@H](O)[C@H]1O [A109, (2R,3R,4R,5R,6S)-2-(hydroxymethyl)-6-phenyl-5-((6-(trifluoromethyl)pyrazin-2-yl)amino)tetrahydro-2H-pyran-3,4-diol] | 10 to 100 µM | –
11 | O=C(O)COCCOCC(=O)NC[C@H]1OC[C@H](Nc2nc(C(F)(F)F)ccc2F)[C@@H](O)[C@H]1O [A110, 2-(2-(2-((((2R,3R,4R,5S)-5-((3-fluoro-6-(trifluoromethyl)pyridin-2-yl)amino) 3,4-dihydroxytetrahydro-2H-pyran-2-yl)methyl)amino)-2-oxoethoxy)ethoxy)acetic acid] | < 10 µM | –
12 | O=C(O)c1ccc(S(=O)(=O)NC[C@H]2OC[C@H](Nc3cncc(C(F)(F)F)n3)[C@@H](O)[C@H]2O)cc1 [A111, 4-(N-(((2R,3R,4R,5S)-3,4-dihydroxy-5-((6-(trifluoromethyl)pyrazin-2-yl)amino)tetrahydro-2H-pyran-2-yl)methyl)sulfamoyl)benzoic acid] | < 10 µM | –
13 | O=S(=O)(NC[C@H]1OC[C@H](Nc2cncc(C(F)(F)F)n2)[C@@H](O)[C@H]1O)c1ccccc1 [A112, N-(((2R,3R,4R,5S)-3,4-dihydroxy-5-((6-(trifluoromethyl)pyrazin-2-yl)amino)tetrahydro-2H-pyran-2-yl)methyl)benzenesulfonamide] | < 10 µM | –
14 | O=C(NC[C@H]1OC[C@H](Nc2cncc(C(F)(F)F)n2)[C@@H](O)[C@H]1O)Nc1ccc(C(=O)O)cc1 [A113, 4-(3-(((2R,3R,4R,5S)-3,4-dihydroxy-5-((6-(trifluoromethyl)pyrazin-2-yl)amino)tetrahydro-2H-pyran-2-yl)methyl)ureido)benzoic acid] | < 10 µM | –
15 | O=C(NC[C@H]1OC[C@H](Nc2cncc(C(F)(F)F)n2)[C@@H](O)[C@H]1O)Nc1ccccc1 [A114, 1-(((2R,3R,4R,5S)-3,4-dihydroxy-5-((6-(trifluoromethyl)pyrazin-2-yl)amino)tetrahydro-2H-pyran-2-yl)methyl)-3-phenylurea] | < 10 µM | –
16 | O=C(O)CCCCCNC(=O)NC[C@H]1OC[C@H](Nc2cncc(C(F)(F)F)n2)[C@@H](O)[C@H]1O [A115, 6-(3-(((2R,3R,4R,5S)-3,4-dihydroxy-5-((6-(trifluoromethyl)pyrazin-2-yl)amino)tetrahydro-2H-pyran-2-yl)methyl)ureido)hexanoic acid] | < 10 µM | –
17 | O=C(O)COCCOCC(=O)NC[C@H]1OC[C@H](Nc2ccnc(C(F)(F)F)n2)[C@@H](O)[C@H]1O [A116, 2-(2-(2-((((2R,3R,4R,5S)-3,4-dihydroxy-5-((2-(trifluoromethyl)pyrimidin-4-yl)amino)tetrahydro-2H-pyran-2-yl)methyl)amino)-2-oxoethoxy)ethoxy)acetic acid] | < 10 µM | –
18 | OC[C@H]1NC[C@H](Nc2nccc(C(F)(F)F)n2)[C@@H](O)[C@H]1O [A117] | < 10 µM | –
19 | OC[C@H]1NC[C@H](Nc2cncc(C(F)(F)F)n2)[C@@H](O)[C@H]1O [A118] | < 10 µM | –
20 | OC[C@H]1OC[C@H](Nc2cncc(Br)n2)[C@@H](O)[C@H]1O [A138, (2R,3R,4R,5S)-5-((6-bromopyrazin-2-yl)amino)-2-(hydroxymethyl) tetrahydro-2H-pyran-3,4-diol] | < 10 µM | –

Now from value to compound:

Row | Kd (Table 1A, read-out: ASGPR KD) | Kd (Table 1B, read-out: ASGPR Kd) | Compound
21 | – | < 10 µM | N#Cc1cc(N[C@H]2CO[C@H](CO)[C@H](O)[C@@H]2O)nc(C(F)(F)F)c1 [A139, 2-(((3S,4R,5R,6R)-4,5-dihydroxy-6-(hydroxymethyl)tetrahydro-2H-pyran-3-yl)amino)-6-(trifluoromethyl)isonicotinonitrile]
22 | – | < 10 µM | OC[C@H]1OC[C@H](Oc2nccc(C(F)(F)F)n2)[C@@H](O)[C@H]1O [A140, (2R,3R,4S,5S)-2-(hydroxymethyl)-5-((4-(trifluoromethyl)pyrimidin-2-yl)oxy)tetrahydro-2H-pyran-3,4-diol]
23 | – | < 10 µM | OC[C@H]1OC[C@H](Oc2cncc(C(F)(F)F)n2)[C@@H](O)[C@H]1O [A141, (2R,3R,4S,5S)-2-(hydroxymethyl)-5-((6-(trifluoromethyl)pyrazin-2-yl)oxy)tetrahydro-2H-pyran-3,4-diol]
24 | – | < 10 µM | OC[C@H]1OC[C@H](Oc2cccc(C(F)(F)F)n2)[C@@H](O)[C@H]1O [A142, (2R,3R,4S,5S)-2-(hydroxymethyl)-5-((6-(trifluoromethyl)pyridin-2-yl)oxy)tetrahydro-2H-pyran-3,4-diol]
25 | – | < 10 µM | OC[C@H]1OC[C@H](Nc2cccc(OC(F)(F)F)n2)[C@@H](O)[C@H]1O [A143, (2R,3R,4R,5S)-2-(hydroxymethyl)-5-((6-(trifluoromethoxy)pyridin-2-yl)amino)tetrahydro-2H-pyran-3,4-diol]
26 | – | < 10 µM | O[C@@H]1[C@H](O)[C@@H](Nc2cccc(OC(F)(F)F)n2)CO[C@@H]1COc1cccc(OC(F)(F)F)n1 [A144, (2R,3R,4R,5S)-5-((6-(trifluoromethoxy)pyridin-2-yl)amino)-2-(((6-(trifluoromethoxy)pyridin-2-yl)oxy)methyl) tetrahydro-2H-pyran-3,4-diol]
27 | – | < 10 µM | OC[C@H]1OC[C@H](Nc2cncc(Cl)n2)[C@@H](O)[C@H]1O [A147, (2R,3R,4R,5S)-5-((6-chloropyrazin-2-yl)amino)-2-(hydroxymethyl) tetrahydro-2H-pyran-3,4-diol]
28 | – | < 10 µM | O=C(c1ccc(Cc2ccccc2)cc1)N1C[C@H](Nc2cncc(C(F)(F)F)n2)[C@@H](O)[C@@H](O)C1 [A148, (4-benzylphenyl)((3S,4R,5S)-3,4-dihydroxy-5-((6-(trifluoromethyl)pyrazin-2-yl)amino)piperidin-1-yl)methanone]
29 | – | < 10 µM | O=C(OCc1ccccc1)N1C[C@H](Nc2cncc(C(F)(F)F)n2)[C@@H](O)[C@@H](O)C1 [A149, benzyl (3S,4R,5S)-3,4-dihydroxy-5-((6-(trifluoromethyl)pyrazin-2-yl)amino)piperidine-1-carboxylate]
30 | – | < 10 µM | O[C@@H]1[C@@H](Nc2cncc(C(F)(F)F)n2)CNC[C@@H]1O [A150, (3S,4R,5S)-5-((6-(trifluoromethyl)pyrazin-2-yl)amino)piperidine-3,4-diol]
31 | – | < 10 µM | COc1cc(N[C@H]2CO[C@H](CO)[C@H](O)[C@@H]2O)nc(C(F)(F)F)c1 [A151, (2R,3R,4R,5S)-2-(hydroxymethyl)-5-((4-methoxy-6-(trifluoromethyl)pyridin-2-yl)amino)tetrahydro-2H-pyran-3,4-diol]
32 | – | < 10 µM | O=C1c2ccccc2CN1C[C@H]1OC[C@H](Nc2cncc(C(F)(F)F)n2)[C@@H](O)[C@H]1O [A152, 2-(((2R,3R,4R,5S)-3,4-dihydroxy-5-((6-(trifluoromethyl)pyrazin-2-yl)amino)tetrahydro-2H-pyran-2-yl)methyl) isoindolin-1-one]
33 | – | < 10 µM | OC[C@H]1OC[C@H](Nc2cccc(Br)n2)[C@@H](O)[C@H]1O [A153, (2R,3R,4R,5S)-5-((6-bromopyridin-2-yl)amino)-2-(hydroxymethyl)tetrahydro-2H-pyran-3,4-diol]

From patent US20260083851A1 (AVILAR THERAPEUTICS, INC., priority 2022, published 2026)
